Measured values taken from ChEMBL document CHEMBL2385040, “Synthesis and antiproliferative activity of 4-substituted-piperazine-1-carbodithioate derivatives of 2,4-diaminoquinazoline” (Eur J Med Chem, 2013).
Activity calls are given as the source filed them. The rule behind the calls is not given here.

Assays:
HeLa [1] = assay: Antiproliferative activity against human HeLa cells after 72 hrs by MTT assay; format: functional, cell-based
MCF7 [2] = assay: cells; settings: Homo sapiens, MCF7, 72 h
HT-29 [3] = assay: cells; settings: Homo sapiens, HT-29, 72 h
HCT-116 [4] = assay: Antiproliferative activity against human HCT116 cells after 72 hrs by MTT assay; format: functional, cell-based; settings: HCT-116, 72 h
A549 [5] = assay: cells; settings: Homo sapiens, A549, 72 h
Description: Antiproliferative activity against human A549 cells after 72 hrs by MTT assay

[6] = biological target: Thymidylate synthase (Homo sapiens) (UniProt P04818); settings: 1 uM
Sequence of Thymidylate synthase (Homo sapiens) (P04818 2-313 limits assumed): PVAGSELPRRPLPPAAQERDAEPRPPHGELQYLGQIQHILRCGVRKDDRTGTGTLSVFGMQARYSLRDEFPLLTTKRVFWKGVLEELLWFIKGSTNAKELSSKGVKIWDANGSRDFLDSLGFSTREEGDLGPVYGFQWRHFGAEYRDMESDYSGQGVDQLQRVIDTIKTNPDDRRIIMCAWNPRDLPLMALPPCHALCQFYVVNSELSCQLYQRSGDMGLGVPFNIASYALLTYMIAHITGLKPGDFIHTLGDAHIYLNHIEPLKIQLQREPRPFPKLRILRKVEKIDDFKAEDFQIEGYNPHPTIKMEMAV
Description: Inhibition of human recombinant His-tagged thymidylate synthase assessed as N5,N10-methylenetetrahydrofolate oxidation to dihydrofolate at 1 uM after 20 mins by UV spectrophotometric analysis relative to control

Dihydrofolate reductase = biological target: T1, Dihydrofolate reductase (Homo sapiens, UniProt P00374); assay: Inhibition of human dihydrofolate reductase by spectrophotometric analysis
T1 sequence (P00374 whole entry): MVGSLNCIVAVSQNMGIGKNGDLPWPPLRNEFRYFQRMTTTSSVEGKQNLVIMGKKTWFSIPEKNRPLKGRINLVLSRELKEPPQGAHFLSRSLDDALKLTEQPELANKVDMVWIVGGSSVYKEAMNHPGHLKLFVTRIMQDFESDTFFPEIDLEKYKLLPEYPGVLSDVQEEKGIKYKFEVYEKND

HCT-116 [7] = assay: Cell cycle arrest in human HCT116 cells assessed as accumulation at G2/M phase at IC50 after 24 hrs by propidium iodide staining-based FACS flow cytometric analysis (reference value: 11.54%); format: functional
HCT-116 [8] = assay: Induction of DNA damage in human HCT116 cells assessed as G2/M checkpoint activation measured as reduction in mitotic index after 2 hrs by immunofluorescence assay; format: functional
[9] = biological target: T2, Dihydrofolate reductase (Homo sapiens) (UniProt P00374); assay: Inhibition of human dihydrofolate reductase at 500 nM by spectrophotometric analysis relative to control
T2 sequence (whole entry): T1 sequence (P00374 whole entry)

[10] = biological target: Thymidylate synthase (Homo sapiens) (UniProt P04818); assay: Inhibition of human recombinant His-tagged thymidylate synthase assessed as N5,N10-methylenetetrahydrofolate oxidation to dihydrofolate at 50 uM after 20 mins by UV spectrophotometric analysis relative to control
HCT-116 [11] = assay: Cell cycle arrest in human HCT116 cells assessed as accumulation at S phase at IC50 after 24 hrs by propidium iodide staining-based FACS flow cytometric analysis (reference value: 25.39%); format: functional
HCT-116 [12] = assay: Cell cycle arrest in human HCT116 cells assessed as accumulation at G0/G1 phase at IC50 after 24 hrs by propidium iodide staining-based FACS flow cytometric analysis (reference value: 63.07%); format: functional
HCT-116 [13] = assay: Induction of DNA damage in human HCT116 cells assessed as formation of marker ser-139 phosphorylated H2AX nuclear foci after 2 hrs by immunofluorescence assay; format: functional, cell-based
HT-29 [14] = assay: Antiproliferative activity against human HT-29 cells at 20 uM after 72 hrs by MTT assay relative to control; format: functional, cell-based; settings: HT-29, 72 h
MCF7 [15] = assay: Antiproliferative activity against human MCF7 cells at 20 uM after 72 hrs by MTT assay relative to control; format: functional, cell-based; settings: MCF7, 72 h
HCT-116 [16] = assay: Antiproliferative activity against human HCT116 cells at 20 uM after 72 hrs by MTT assay relative to control; format: functional, cell-based; settings: HCT-116, 72 h
HeLa [17] = assay: Antiproliferative activity against human HeLa cells at 20 uM after 72 hrs by MTT assay relative to control; format: functional, cell-based
A549 [18] = assay: Antiproliferative activity against human A549 cells at 20 uM after 72 hrs by MTT assay relative to control; format: functional, cell-based; settings: A549, 72 h

| Structure (SMILES) | IC50 (HeLa [1]) | IC50 (MCF7 [2]) | IC50 (HT-29 [3]) | IC50 (HCT-116 [4]) | IC50 (A549 [5]) | further results |
| --- | --- | --- | --- | --- | --- | --- |
| Nc1nc(N)c2cc(CSC(=S)N3CCN(c4ncccn4)CC3)ccc2n1 | 4.36 µM | 4.19 µM | 4.72 µM | 5.84 µM | 4.01 µM | – |
| Cc1ccc(N2CCN(C(=S)SCc3ccc4nc(N)nc(N)c4c3)CC2)c(C)c1 | 3.19 µM | 3.12 µM | 2.97 µM | 4.07 µM | 3 µM | – |
| Nc1nc(N)c2cc(CSC(=S)N3CCN(c4ccccc4Cl)CC3)ccc2n1 | 4.05 µM | 3.19 µM | 3.9 µM | 5.49 µM | 3.61 µM | – |
| Cc1nc(=O)c2cc(CN(C)c3ccc(C(=O)N[C@@H](CCC(=O)O)C(=O)O)s3)ccc2[nH]1 | – | – | – | – | – | inhibition [6]: 94.2% |
| Nc1nc(N)c2cc(CSC(=S)N3CCN(c4ccc(F)cc4)CC3)ccc2n1 | 1.84 µM | 1.92 µM | 2.05 µM | 3.27 µM | 2.04 µM | IC50 (Dihydrofolate reductase): 2.11 µM; Activity (HCT-116 [7]): 14.15%; Ratio (HCT-116 [8]): 0.45; inhibition [9]: 35%; inhibition [10]: 19.9%; Activity (HCT-116 [11]): 39.22%; Activity (HCT-116 [12]): 46.63%; Activity (HCT-116 [13]): Active |
| Nc1nc(N)c2cc(CSC(=S)N3CCN(c4ccccn4)CC3)ccc2n1 | 5.09 µM | 5.11 µM | 6.2 µM | 5.96 µM | 3.96 µM | – |
| Nc1nc(N)c2cc(CSC(=S)N3CCN(c4ccc([N+](=O)[O-])cc4)CC3)ccc2n1 | 1.66 µM | 1.47 µM | 3.32 µM | 4.68 µM | 1.91 µM | IC50 (Dihydrofolate reductase): 1.61 µM; Activity (HCT-116 [7]): 15.8%; Ratio (HCT-116 [8]): 0.67; inhibition [9]: 29%; inhibition [10]: 14.1%; Activity (HCT-116 [11]): 39.46%; Activity (HCT-116 [12]): 44.74%; Activity (HCT-116 [13]): Active |
| CC(=O)c1ccc(N2CCN(C(=S)SCc3ccc4nc(N)nc(N)c4c3)CC2)cc1 | 2.04 µM | 2.49 µM | 2.28 µM | 8.26 µM | 2.55 µM | – |
| CN1CCN(C(=S)SCc2ccc3nc(N)nc(N)c3c2)CC1 | – | – | – | – | 9.2 µM | IC50 (HT-29 [14]): > 20 µM; IC50 (MCF7 [15]): > 20 µM; IC50 (HCT-116 [16]): > 20 µM; IC50 (HeLa [17]): > 20 µM |
| Nc1nc(N)c2cc(CSC(=S)N3CCN(c4ccc(O)cc4)CC3)ccc2n1 | 5.18 µM | 5.09 µM | – | 5.98 µM | 4.21 µM | IC50 (HT-29 [14]): > 20 µM |
| Nc1nc(N)c2cc(CSC(=S)N3CCN(c4ccc(C(F)(F)F)cc4)CC3)ccc2n1 | – | 7.4 µM | – | – | – | IC50 (HT-29 [14]): > 20 µM; IC50 (HCT-116 [16]): > 20 µM; IC50 (HeLa [17]): > 20 µM; IC50 (A549 [18]): > 20 µM |
| Nc1nc(N)c2cc(CSC(=S)N3CCN(c4ccc(Cl)c(Cl)c4)CC3)ccc2n1 | 3.06 µM | 2.37 µM | 3.48 µM | 6.68 µM | 2.94 µM | – |
| Nc1nc(N)c2cc(CSC(=S)N3CCN(c4ccccc4F)CC3)ccc2n1 | 6.66 µM | 4.84 µM | 5.42 µM | – | 6.46 µM | – |
| O=c1[nH]cc(F)c(=O)[nH]1 [FLUOROURACIL] | 43.7 µM | 32.2 µM | 24.5 µM | 5.53 µM | 3.52 µM | Activity (HCT-116 [7]): 6.81%; Activity (HCT-116 [11]): 47.75%; Activity (HCT-116 [12]): 45.44%; Activity (HCT-116 [13]): inactive |
| Nc1nc(N)c2cc(CSC(=S)N3CCN(c4ccccc4[N+](=O)[O-])CC3)ccc2n1 | 4.88 µM | 4.35 µM | 4.31 µM | 5.52 µM | 4.36 µM | – |
| COc1ccc(N2CCN(C(=S)SCc3ccc4nc(N)nc(N)c4c3)CC2)cc1 | 1.66 µM | 1.58 µM | 1.77 µM | 2.27 µM | 1.59 µM | IC50 (Dihydrofolate reductase): 5.96 µM; Activity (HCT-116 [7]): 14.29%; Ratio (HCT-116 [8]): 0.76; inhibition [9]: 24%; inhibition [10]: 15.2%; Activity (HCT-116 [11]): 33.34%; Activity (HCT-116 [12]): 52.36%; Activity (HCT-116 [13]): Active |
| Nc1nc(N)c2cc(CSC(=S)N3CCN(C4CCCCC4)CC3)ccc2n1 | 5.96 µM | 6.8 µM | 4.05 µM | 8.4 µM | 4.71 µM | – |
| Nc1nc(N)c2cc(CSC(=S)N3CCN(c4ccccc4)CC3)ccc2n1 | 2.84 µM | 2.95 µM | 2.76 µM | 4.12 µM | 2.97 µM | – |
| Nc1nc(N)c2cc(CSC(=S)N3CCN(c4ccc(F)cc4F)CC3)ccc2n1 | 3.8 µM | 3.67 µM | 5.02 µM | 5.15 µM | 5.12 µM | – |
| CC[C@@]1(O)C(=O)OCc2c1cc1n(c2=O)Cc2cc3ccccc3nc2-1 [CAMPTOTHECIN] | – | – | – | – | – | Ratio (HCT-116 [8]): 0.64 |
| Cc1ccccc1N1CCN(C(=S)SCc2ccc3nc(N)nc(N)c3c2)CC1 | – | 4.23 µM | 2.95 µM | 11.8 µM | 3.92 µM | – |
| Cc1ccc(N2CCN(C(=S)SCc3ccc4nc(N)nc(N)c4c3)CC2)cc1 | 2.13 µM | 2.48 µM | 3.02 µM | 5.51 µM | 2.19 µM | – |
| Nc1nc(N)c2cc(CSC(=S)N3CCN(Cc4ccccc4)CC3)ccc2n1 | 8.35 µM | 8.46 µM | 8.49 µM | 4.91 µM | 3.31 µM | – |
| Nc1nc(N)c2cc(CSC(=S)N3CCN(c4ccc(Cl)cc4)CC3)ccc2n1 | 6.99 µM | 4.88 µM | 7.48 µM | 7.38 µM | 5.21 µM | – |
